Source: patent publication US12516056B2, “Compounds for inhibition of janus kinase 1” (MANKIND PHARMA LTD., priority 2019, dated 2026)

Key:
Recombinant TYK2 = target: T1, Recombinant TYK2 (Homo sapiens, UniProt P29597); experiment: JAK biochemical assay (LANCE Ultra TR-FRET), TYK2; conditions: recombinant TYK2, TR-FRET; read-out: Biochemical Assay (μM) TYK2
T1 construct: purchased Carna Biosciences
Method: (§1) Recombinant JAK1, JAK2, JAK3 and TYK2 (Carna Biosciences) were used to develop biochemical assays in 50 mM HEPES pH 7.5, 1 mM EGTA, 10 mM MgCl2, 2 mM DTT and 0.01% Tween-20. […] The intensity of the light emission is proportional to the level of ULight substrate phosphorylation. Compounds which interfere with JAK enzyme activity show a lesser substrate phosphorylation and values are projected in terms of % inhibition in comparison to vehicle control.

Recombinant JAK1 = target: T2, Recombinant JAK1 (Homo sapiens, UniProt P23458); experiment: JAK biochemical assay (LANCE Ultra TR-FRET), JAK1; conditions: recombinant JAK1, TR-FRET; read-out: Biochemical Assay (μM) JAK1
T2 construct: purchased Carna Biosciences
T2 sequence (P23458 whole entry): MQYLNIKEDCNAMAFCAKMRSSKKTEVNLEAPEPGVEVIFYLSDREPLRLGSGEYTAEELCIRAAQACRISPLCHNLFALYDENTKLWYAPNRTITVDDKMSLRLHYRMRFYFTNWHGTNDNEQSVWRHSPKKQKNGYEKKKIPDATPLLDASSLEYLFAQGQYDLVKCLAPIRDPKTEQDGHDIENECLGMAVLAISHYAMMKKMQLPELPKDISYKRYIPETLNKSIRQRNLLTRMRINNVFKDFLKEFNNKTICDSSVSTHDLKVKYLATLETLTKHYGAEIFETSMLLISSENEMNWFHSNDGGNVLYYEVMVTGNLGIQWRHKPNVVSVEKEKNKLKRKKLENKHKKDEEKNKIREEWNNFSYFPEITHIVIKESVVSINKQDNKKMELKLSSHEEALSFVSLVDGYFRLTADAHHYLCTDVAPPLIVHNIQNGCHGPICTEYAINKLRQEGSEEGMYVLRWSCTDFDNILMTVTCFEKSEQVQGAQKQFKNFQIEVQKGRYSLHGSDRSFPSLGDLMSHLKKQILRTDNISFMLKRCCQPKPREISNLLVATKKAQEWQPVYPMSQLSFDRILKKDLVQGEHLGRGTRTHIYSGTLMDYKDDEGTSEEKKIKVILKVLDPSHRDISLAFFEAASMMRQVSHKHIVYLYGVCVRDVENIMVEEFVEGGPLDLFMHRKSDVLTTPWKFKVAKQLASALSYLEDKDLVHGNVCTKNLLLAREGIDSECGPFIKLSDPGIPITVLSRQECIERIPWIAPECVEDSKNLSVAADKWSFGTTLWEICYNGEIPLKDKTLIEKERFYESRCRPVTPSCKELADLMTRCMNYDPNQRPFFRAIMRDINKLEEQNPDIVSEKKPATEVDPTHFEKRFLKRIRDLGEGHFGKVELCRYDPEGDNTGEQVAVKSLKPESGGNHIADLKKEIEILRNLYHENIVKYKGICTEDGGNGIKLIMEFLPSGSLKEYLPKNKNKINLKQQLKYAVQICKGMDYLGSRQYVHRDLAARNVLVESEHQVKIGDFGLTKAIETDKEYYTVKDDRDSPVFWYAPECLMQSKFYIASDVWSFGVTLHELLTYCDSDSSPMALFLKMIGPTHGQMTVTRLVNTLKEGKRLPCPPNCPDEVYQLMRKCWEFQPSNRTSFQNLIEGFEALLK
Method: as §1

Recombinant JAK3 = target: T3, Recombinant JAK3 (Homo sapiens, UniProt P52333); experiment: JAK biochemical assay (LANCE Ultra TR-FRET), JAK3; conditions: recombinant JAK3, TR-FRET; read-out: Biochemical Assay (μM) JAK3
T3 construct: purchased Carna Biosciences
T3 sequence (P52333 1-1124): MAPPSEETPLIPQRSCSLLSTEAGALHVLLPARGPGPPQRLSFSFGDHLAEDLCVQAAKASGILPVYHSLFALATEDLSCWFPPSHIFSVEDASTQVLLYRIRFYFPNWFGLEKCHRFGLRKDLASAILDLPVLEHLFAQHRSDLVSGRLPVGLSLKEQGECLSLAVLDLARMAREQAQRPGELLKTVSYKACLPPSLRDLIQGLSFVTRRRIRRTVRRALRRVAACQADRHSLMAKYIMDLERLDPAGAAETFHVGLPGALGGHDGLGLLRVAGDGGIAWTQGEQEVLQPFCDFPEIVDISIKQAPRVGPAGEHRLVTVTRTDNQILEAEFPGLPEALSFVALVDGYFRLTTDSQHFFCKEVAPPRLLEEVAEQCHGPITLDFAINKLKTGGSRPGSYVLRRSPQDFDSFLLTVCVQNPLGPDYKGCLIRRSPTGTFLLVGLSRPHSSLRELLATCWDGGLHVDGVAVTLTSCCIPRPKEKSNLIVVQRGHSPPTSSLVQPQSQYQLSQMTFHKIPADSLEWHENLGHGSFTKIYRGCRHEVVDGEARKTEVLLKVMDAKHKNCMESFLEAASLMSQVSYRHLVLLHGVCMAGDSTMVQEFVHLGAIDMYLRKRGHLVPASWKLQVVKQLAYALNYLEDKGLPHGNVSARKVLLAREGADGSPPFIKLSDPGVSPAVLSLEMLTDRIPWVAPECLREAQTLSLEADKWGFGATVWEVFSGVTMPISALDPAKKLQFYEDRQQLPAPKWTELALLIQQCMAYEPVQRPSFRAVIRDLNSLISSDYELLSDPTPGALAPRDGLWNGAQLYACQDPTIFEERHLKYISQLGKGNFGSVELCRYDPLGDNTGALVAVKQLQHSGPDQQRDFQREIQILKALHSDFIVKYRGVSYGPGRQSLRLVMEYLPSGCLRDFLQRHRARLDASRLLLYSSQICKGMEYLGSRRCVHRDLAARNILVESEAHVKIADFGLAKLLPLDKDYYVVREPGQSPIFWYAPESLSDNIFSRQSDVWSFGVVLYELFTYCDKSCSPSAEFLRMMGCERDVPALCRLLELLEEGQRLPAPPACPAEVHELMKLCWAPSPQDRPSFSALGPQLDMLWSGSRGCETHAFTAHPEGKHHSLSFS
Method: as §1

Recombinant JAK2 = target: T4, Recombinant JAK2 (Homo sapiens, UniProt O60674); experiment: JAK biochemical assay (LANCE Ultra TR-FRET), JAK2; conditions: recombinant JAK2, TR-FRET; read-out: Biochemical Assay (μM) JAK2
T4 construct: purchased Carna Biosciences
T4 sequence (O60674 whole entry): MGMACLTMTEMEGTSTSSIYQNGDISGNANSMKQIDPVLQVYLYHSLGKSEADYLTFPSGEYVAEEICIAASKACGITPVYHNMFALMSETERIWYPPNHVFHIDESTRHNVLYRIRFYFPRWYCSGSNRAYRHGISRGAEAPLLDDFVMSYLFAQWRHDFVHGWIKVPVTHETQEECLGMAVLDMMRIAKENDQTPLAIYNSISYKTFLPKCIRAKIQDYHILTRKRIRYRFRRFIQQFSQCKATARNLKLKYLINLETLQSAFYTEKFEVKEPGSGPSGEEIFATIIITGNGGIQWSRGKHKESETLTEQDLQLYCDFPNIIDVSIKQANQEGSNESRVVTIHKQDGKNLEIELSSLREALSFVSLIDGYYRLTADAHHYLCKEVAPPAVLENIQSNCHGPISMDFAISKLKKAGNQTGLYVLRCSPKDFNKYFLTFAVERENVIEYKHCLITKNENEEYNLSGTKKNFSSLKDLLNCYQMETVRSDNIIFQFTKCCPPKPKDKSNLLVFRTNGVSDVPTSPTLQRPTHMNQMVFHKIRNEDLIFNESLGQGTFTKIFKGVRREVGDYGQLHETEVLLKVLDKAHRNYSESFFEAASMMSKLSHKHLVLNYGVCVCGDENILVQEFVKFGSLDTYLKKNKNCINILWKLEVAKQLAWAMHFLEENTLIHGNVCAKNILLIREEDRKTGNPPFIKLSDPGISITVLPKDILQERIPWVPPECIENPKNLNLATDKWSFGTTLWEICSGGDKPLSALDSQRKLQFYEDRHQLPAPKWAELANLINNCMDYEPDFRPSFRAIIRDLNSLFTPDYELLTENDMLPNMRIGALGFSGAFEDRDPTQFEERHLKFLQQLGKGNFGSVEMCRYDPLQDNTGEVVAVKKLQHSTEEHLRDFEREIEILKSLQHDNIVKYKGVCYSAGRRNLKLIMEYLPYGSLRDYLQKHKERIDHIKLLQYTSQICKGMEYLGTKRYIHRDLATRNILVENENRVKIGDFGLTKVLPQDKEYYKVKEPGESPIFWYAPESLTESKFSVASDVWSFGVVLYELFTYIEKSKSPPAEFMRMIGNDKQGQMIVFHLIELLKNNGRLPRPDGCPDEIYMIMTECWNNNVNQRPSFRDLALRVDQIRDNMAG
Method: as §1

T1 sequence (P29597 whole entry): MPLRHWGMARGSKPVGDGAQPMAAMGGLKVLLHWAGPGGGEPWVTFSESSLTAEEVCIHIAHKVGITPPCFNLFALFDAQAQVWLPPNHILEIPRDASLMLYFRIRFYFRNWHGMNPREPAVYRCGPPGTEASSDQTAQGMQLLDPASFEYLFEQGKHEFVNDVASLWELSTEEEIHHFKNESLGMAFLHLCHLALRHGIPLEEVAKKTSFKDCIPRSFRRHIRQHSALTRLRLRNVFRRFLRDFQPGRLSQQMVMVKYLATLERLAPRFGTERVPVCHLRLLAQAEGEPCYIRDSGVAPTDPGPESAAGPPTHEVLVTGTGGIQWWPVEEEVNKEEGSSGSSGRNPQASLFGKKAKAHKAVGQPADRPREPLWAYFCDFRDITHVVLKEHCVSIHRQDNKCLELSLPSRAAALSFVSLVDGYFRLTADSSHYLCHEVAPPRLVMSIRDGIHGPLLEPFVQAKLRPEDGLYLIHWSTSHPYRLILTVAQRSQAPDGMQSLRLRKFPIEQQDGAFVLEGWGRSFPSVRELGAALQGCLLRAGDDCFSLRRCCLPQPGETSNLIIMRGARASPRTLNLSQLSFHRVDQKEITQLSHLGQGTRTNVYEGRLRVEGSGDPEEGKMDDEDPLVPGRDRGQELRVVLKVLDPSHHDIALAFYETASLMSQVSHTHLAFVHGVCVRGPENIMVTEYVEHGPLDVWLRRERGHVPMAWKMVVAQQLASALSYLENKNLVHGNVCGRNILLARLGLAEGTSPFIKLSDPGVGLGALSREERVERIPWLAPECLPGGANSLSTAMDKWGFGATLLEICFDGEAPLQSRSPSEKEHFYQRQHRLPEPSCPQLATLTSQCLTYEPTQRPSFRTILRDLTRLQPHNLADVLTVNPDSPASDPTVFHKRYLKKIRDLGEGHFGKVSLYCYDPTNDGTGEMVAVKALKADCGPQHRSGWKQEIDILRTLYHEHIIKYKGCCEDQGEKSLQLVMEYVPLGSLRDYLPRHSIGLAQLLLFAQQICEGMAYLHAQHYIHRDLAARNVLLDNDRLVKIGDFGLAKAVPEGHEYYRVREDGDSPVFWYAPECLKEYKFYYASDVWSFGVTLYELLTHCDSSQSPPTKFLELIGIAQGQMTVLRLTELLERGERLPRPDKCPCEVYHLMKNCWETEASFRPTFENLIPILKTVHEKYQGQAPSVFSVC

SMILES	IC50 (Recombinant TYK2) [µM]	IC50 (Recombinant JAK1) [µM]	IC50 (Recombinant JAK3) [µM]	IC50 (Recombinant JAK2) [µM]
N#CC1CN(Cc2ccc(-n3cc(-c4ccnc5[nH]cnc45)cn3)nc2)C1 [Example 1087, 1-((6-(4-(3H-imidazo[4,5-b]pyridin-7-yl)-1H-pyrazol-1-yl)pyridin-3-yl)methyl)azetidine-3-carbonitrile]	> 10	> 0.5	> 1	> 1
CS(=O)(=O)CCC(c1cccc(-n2cc(-c3ccnc4[nH]cnc34)cn2)n1)C(F)(F)F (stereo not shown) [Example 1175, 7-(1-(6-(1,1,1-trifluoro-4-(methylsulfonyl)butan-2-yl)pyridin-2-yl)-1H-pyrazol-4-yl)-3H-imidazo[4,5-b]pyridine]	> 1	> 1	> 1	> 1
CC(C)OC(c1ccc(-n2cc(-c3ccnc4[nH]cnc34)cn2)nc1)C(F)(F)F (stereo not shown) [Example 1124, 7-(1-(5-(2,2,2-trifluoro-1-isopropoxyethyl)pyridin-2-yl)-1H-pyrazol-4-yl)-3H-imidazo[4,5-b]pyridine]	> 1	> 1	> 0.5	> 1
O=C(CN1CCN(c2ccnc3[nH]c(=O)[nH]c23)CC1)NCC(F)(F)F [Example 1025, N-(2,2,2-trifluoroethyl)-2-(4-(2,3-dihydro-2-oxo-1H-imidazo[4,5-b]pyridin-7-yl)piperazin-1-yl)acetamide]	> 10	> 10	> 10	> 10
CC(CCS(C)(=O)=O)c1ccc(-n2cc(-c3ccnc4[nH]cnc34)cn2)nc1 (stereo not shown) [Example 1163, 7-(1-(5-(4-(methylsulfonyl)butan-2-yl)pyridin-2-yl)-1H-pyrazol-4-yl)-3H-imidazo[4,5-b]pyridine]	> 1	> 0.5	> 0.5	> 0.5
O=S(=O)(CCC(c1ccc(-n2cc(-c3ccnc4[nH]cnc34)cn2)nc1)C(F)(F)F)CC1CC1 (stereo not shown) [Example 1204, 7-(1-(5-(4-(cyclopropylmethylsulfonyl)-1,1,1-trifluorobutan-2-yl)pyridin-2-yl)-1H-pyrazol-4-yl)-3H-imidazo[4,5-b]pyridine]	> 1	< 0.1	< 0.1	< 0.1
O=C(N1CCN(c2ccnc3[nH]c(=O)[nH]c23)CC1)N1CCS(=O)(=O)CC1 [Example 1018, 7-(4-(1,1-dioxidothiomorpholine-4-carbonyl)piperazin-1-yl)-1,3-dihydro-2H-imidazo[4,5-b]pyridin-2-one]	> 10	> 10	> 10	> 10
N#CCNC(=O)c1cnc(-n2cc(-c3ccnc4[nH]cnc34)cn2)nc1 [Example 1093, 2-(4-(3H-imidazo[4,5-b]pyridin-7-yl)-1H-pyrazol-1-yl)-N-(cyanomethyl)pyrimidine-5-carboxamide]	> 10	> 0.5	< 0.5	< 0.5
CCn1c(=O)[nH]c2nccc(-c3cnn(C(=O)NCC(F)(F)F)c3)c21 [Example 1042, 4-(1-ethyl-2,3-dihydro-2-oxo-1H-imidazo[4,5-b]pyridin-7-yl)-N-(2,2,2-trifluoroethyl)-1H-pyrazole-1-carboxamide]	> 10	> 10	> 10	> 1
Cc1cc(S(C)(=O)=O)ccc1NC(=O)N1CCN(c2ccnc3[nH]c(=O)[nH]c23)CC1 [Example 1024, 4-(2,3-dihydro-2-oxo-1H-imidazo[4,5-b]pyridin-7-yl)-N-(2-methyl-4-(methylsulfonyl)phenyl)piperazine-1-carboxamide]	> 1	> 1	> 1	> 1
FC(F)(F)C(CCNC1CCCCC1)c1ccc(-n2cc(-c3ccnc4[nH]cnc34)cn2)nc1 (stereo not shown) [Example 1199, N-(3-(6-(4-(3H-imidazo[4,5-b]pyridin-7-yl)-1H-pyrazol-1-yl)pyridin-3-yl)-4,4,4-trifluorobutyl)cyclohexanamine]	> 0.5	< 0.1	< 0.1	> 0.1
COCCC(c1ccc(-n2cc(-c3ccnc4[nH]cnc34)cn2)nc1)C(F)(F)F (stereo not shown) [Example 1155, 7-(1-(5-(1,1,1-trifluoro-4-methoxybutan-2-yl)pyridin-2-yl)-1H-pyrazol-4-yl)-3H-imidazo[4,5-b]pyridine]	> 1	> 0.1	> 0.1	> 0.5
CCC(C)(C#N)NC(=O)n1cc(-c2ccnc3[nH]c(=O)[nH]c23)cn1 (stereo not shown) [Example 1040, N-(2-cyanobutan-2-yl)-4-(2,3-dihydro-2-oxo-1H-imidazo[4,5-b]pyridin-7-yl)-1H-pyrazole-1-carboxamide]	> 1	–	–	–
FC(F)(F)C(c1ccc(-n2cc(-c3ccnc4[nH]cnc34)cn2)nc1)N1CCOCC1 (stereo not shown) [Example 1137, 7-(1-(5-(2,2,2-trifluoro-1-morpholinoethyl)pyridin-2-yl)-1H-pyrazol-4-yl)-3H-imidazo[4,5-b]pyridine]	> 1	–	> 0.5	> 0.5
N#CCNC(=O)N1CCN(c2ccnc3[nH]c(=O)[nH]c23)CC1 [Example 1012, N-(cyanomethyl)-4-(2,3-dihydro-2-oxo-1H-imidazo[4,5-b]pyridin-7-yl)piperazine-1-carboxamide]	–	–	> 1	–
OC(c1ccnc(-n2cc(-c3ccnc4[nH]cnc34)cn2)c1)C(F)(F)F (stereo not shown) [Example 1172, 1-(2-(4-(3H-imidazo[4,5-b]pyridin-7-yl)-1H-pyrazol-1-yl)pyridin-4-yl)-2,2,2-trifluoroethanol]	> 1	–	< 0.1	–
CN(C)C(c1ccc(-n2cc(-c3ccnc4[nH]cnc34)cn2)nc1)C(F)(F)F (stereo not shown) [Example 1121, 1-(6-(4-(3H-imidazo[4,5-b]pyridin-7-yl)-1H-pyrazol-1-yl)pyridin-3-yl)-2,2,2-trifluoro-N,N-dimethylethanamine]	> 1	–	> 0.1	> 0.1
O=C(NCC(F)(F)F)Nc1cnc(-c2ccnc3[nH]c(=O)[nH]c23)cn1 [Example 1006, 1-(5-(2-oxo-2,3-dihydro-1H-imidazo[4,5-b]pyridin-7-yl)pyrazin-2-yl)-3-(2,2,2-trifluoroethyl)urea]	> 1	–	–	–
OC(c1ccc(-n2cc(-c3ccnc4[nH]cnc34)cn2)nc1)(C1CCCC1)C(F)(F)F (stereo not shown) [Example 1132, 1-(6-(4-(3H-imidazo[4,5-b]pyridin-7-yl)-1H-pyrazol-1-yl)pyridin-3-yl)-1-cyclopentyl-2,2,2-trifluoroethanol]	> 1	–	> 0.1	> 0.5
CC(C)(C#N)NC(=O)n1cc(-c2ccnc3[nH]c(=O)[nH]c23)cn1 [Example 1033, N-(2-cyanopropan-2-yl)-4-(2,3-dihydro-2-oxo-1H-imidazo[4,5-b]pyridin-7-yl)-1H-pyrazole-1-carboxamide]	> 1	–	> 1	–
COc1cc(NC(=O)N2CCN(c3ccnc4[nH]c(=O)[nH]c34)CC2)ccn1 [Example 1019, 4-(2,3-dihydro-2-oxo-1H-imidazo[4,5-b]pyridin-7-yl)-N-(2-methoxypyridin-4-yl)piperazine-1-carboxamide]	> 1	–	> 1	> 1
O=C(Nc1ccnc(F)c1)N1CCN(c2ccnc3[nH]c(=O)[nH]c23)CC1 [Example 1015, N-(2-fluoropyridin-4-yl)-4-(2,3-dihydro-2-oxo-1H-imidazo[4,5-b]pyridin-7-yl)piperazine-1-carboxamide]	> 1	–	> 1	> 1
CC(NC(=O)N1CCN(c2ccnc3[nH]c(=O)[nH]c23)CC1)C(F)(F)F (stereo not shown) [Example 1021, N-(1,1,1-trifluoropropan-2-yl)-4-(2,3-dihydro-2-oxo-1H-imidazo[4,5-b]pyridin-7-yl)piperazine-1-carboxamide]	> 1	–	> 1	> 1
